Assay [1] deals with angiotensin II infused rats. Description: Assay A, angiotensin II infusion model: systolic blood pressure by tail-cuff. Type of assay: in vivo, Male Wistar rats. To be noted: angiotensin II 25 ng/min sc, 1% NaCl; eplerenone 100 mpk; aldosterone in adrenalectomized rats; 4 weeks. The protocol: Human cardiovascular disorders are complex conditions, often initiated by vascular hypertension or a myocardial infarction (MI). In order to determine the probable effectiveness of a therapy for cardiovascular disorders, it is important to determine the potency of components in several assays. Accordingly, in Assay “A”, the efficacy of the aldosterone antagonist epeplerenone (epoxymexrenone) was determined in a hypertensive rat model with vascular inflammation, using angiotensin II infusion. In Assay “B” a study is described evaluating the efficacy of the aldosterone antagonist epeplerenone (epoxymexrenone) in a rat model using aldosterone infusion to produce hypertension with vascular inflammation. In Assay “C” a further study is described evaluating the efficacy of the aldosterone antagonist epeplerenone (epoxymexrenone) in a rat model using aldosterone infusion to produce hypertension with vascular inflammation.
Assay A: In Vivo Angiotensin II Infusion Model
Male Wistar rats (n=50, 10/group; BW=200 g)
SBP measured by tail-cuff every week

Assay [2] deals with coronary arteries of angiotensin II/salt-treated animals. Description: Assay A: heart histology (hematoxylin&eosin), vascular inflammatory lesions and myocardial injury. Type of assay: in vivo, Male Wistar rats. To be noted: of ten animals per group; angiotensin II/salt; eplerenone 100 mpk; 4 weeks. The text has this:
Sacrifice by exanguination after 4 weeks. Blood was be collected in dry tubes for determination of serum electrolytes and in EDTA-containing tubes for measurement of aldosterone and corticosterone levels Hearts were stained with hematoxylin&eosin and have been analyzed for determination of morphologic abnormalities (i.e. necrosis, vascular injury).

Assay [3] relates to aldosterone-infused, saline-drinking, uni-nephrectomized rats. Nature of the assay: Assay B: heart histology (hematoxylin&eosin), vascular inflammatory lesions and myocardial injury. The class given is in vivo, Male Sprague Dawley rats. The settings on record: eplerenone 100 mpk p.o., 0.6% KCl group, 4 weeks. The method, then: Assay B: In Vivo Aldosterone Infusion Model Male Sprague Dawley rats (n=39; BW=250 g) […] Uni-nephrectomy performed during implantation of mini-pumps 2. Aldosterone ([…], sc via alzet minipump) 2. […] 1. […] Sacrifice after 4 weeks. Hearts were harvested and divided by half through a transverse section at the mid-ventricles: The upper half was stored into formalin. The bottom part was snap-frozen in liquid nitrogen for biochemical analysis. Hearts were stained with hematoxylin&eosin and the collagen specific dye picro-sirius red and were analyzed for determination of interstitial collagen volume fraction and morphologic abnormalities (i.e. necrosis, vascular injury).

In the next assay the test system is osteopontin. Description: Assay B: osteopontin immunohistochemistry in the heart. Type of assay: in vivo, Male Sprague Dawley rats. To be noted: aldosterone-infused rats; eplerenone 100 mpk; increased dietary potassium group. The protocol: Assay B: In Vivo Aldosterone Infusion Model Male Sprague Dawley rats (n=39; BW=250 g) 2. Aldosterone (0.75 mg/hr, sc via alzet minipump) 2. […] Determination of osteopontin and COX-2 was performed by quantitative RT-PCR (Taqman). Osteopontin was also identified in the heart by immunohistochemistry.

Take “angiotensin II: infused 25 ng/min sc via alzet minipump to produce hypertensive rat model with vascular inflammation (DRVYIHPF; Angiotensin-2; UniProt P01015 25-32, looked up)”: the Systolic Blood Pressure entry in assay [1] is listed as “increased”. Further, the “Animals with vascular inflammatory changes (lesions) in the coronary arteries” value in assay [2] was “Seven out of the ten”.
Turning to `[Cl-].[K+]` [dietary potassium], the “Vascular inflammatory changes / myocardial injury” value in assay [3] was “did not have significant effects”. Moreover, in the assay on osteopontin, the “Osteopontin expression in the heart (immunostaining)” value is listed as “did not reduce osteopontin expression”.

Source of the values: patent publication US6716829B2, “Aldosterone antagonist and cyclooxygenase-2 inhibitor combination therapy to prevent or treat inflammation-related cardiovascular disorders” (Pharmacia Corporation, priority 2000, dated 2004).
